In patent US8044022B2, “Hyaluronic acid binding peptides enhance host defense against pathogenic bacteria” (priority 2005, dated 2011):

Assays:
[1] = Fluorometry binding of FITC-conjugated peptide to purified HA in well; set-up: species or system rooster
Procedure: Lyophilized synthetic peptides were resuspended in PBS pH7.4 prior to use in either in vitro or in vivo experiments. Fluorescein conjugation of HABP01 and SCRM was performed using 5,6 carboxyfluorescein, succinimidyl ester (5,6 FAM) (Molecular Probes, Portland, Oreg.) as per manufacturer's instructions and separated on a Sephadex G-25 column (Amersham, Piscataway, N.J.). Purified, high molecular weight rooster comb HA (Sigma-Aldrich, St Louis, Mo.) was used as a positive control for BP binding.
Binding of HABP to HA and HA-encapsulated bacteria: To assess whether HABP are able to associate specifically with the GAS capsule, bacteria were cultured to mid-log phase, for maximal HA capsule expression, and incubated with either 10 μg/ml of FITC-conjugated HABP01 or SCRM, with purified HA at 1 mg/ml, as a positive control, or an isogenic mutant strain of GAS deficient in HA capsule, as a negative control. A GAS-specific antibody was used to control for the number of bacteria per well.

GAS [2] = experiment: Opsonophagocytic assay with human neutrophils; assay type: cell-based, Group A Streptococcus; conditions: 50 μg/ml, 2 hours incubation with human neutrophils, 10% absorbed human serum
Procedure: Encapsulated GAS are resistant to killing by neutrophils in opsonophagocytic assays in the absence of antibodies that bind the bacterial surface. HABPs binding to the bacterial surface may facilitate neutrophil cytotoxicity. Opsonophagocytic assays were performed wherein GAS were incubated with 50 μg/ml of SCRM, HABP01 or HABP35 and mixed with human neutrophils in medium containing 10% absorbed human serum. Aliquots (25 μl) for quantitative culture were withdrawn immediately after mixing neutrophil with GAS and after 2 hr incubation at 37° C. The log increase or decrease in CFU's was calculated. After 2 hours of incubation, there was about a 1.5 log increase in CFU's for GAS treated with PBS or SCRM.

GAS [3] = experiment: Bacterial translocation through polarized keratinocyte cultures (Transwell); assay type: cell-based, Group A Streptococcus; conditions: two hours after addition of GAS
Procedure: Cell cultures: For the preparation of in vitro keratinocyte cultures, human primary OKP7 cells were derived from the oropharynx. Keratinocytes were seeded at 5×10^5 cells per well onto polycarbonate Transwell membrane supports (12 well plates, 3.0 μm pore size; Costar) or tissue culture treated plastic ware and cultured for 5-10 days at 37° C. with 5% humidified CO2 in cSFM medium with daily medium changes. Once confluent, the calcium concentration of the cSFM was increased to 1.2 mM and cells were cultured for 2 more days, before the integrity of the monolayer was assessed by measuring permeability to sodium fluorescein, and in some experiments, by measuring transepithelial electrical resistance.
Infection procedures: Keratinocyte layer cultures in Transwell inserts were inoculated in the upper chamber with GAS, S. equi, S. uberis, and P. multocida at a multiplicity of infection (MOI) of 1 bacterium per keratinocyte in the presence or absence of HABP01 or SCRM. Infected cultures were incubated at 37° C. with 5% CO2 for the desired time. In translocation experiments, Transwell inserts containing the keratinocytes were moved to new wells containing fresh medium every 2 hours to prevent overgrowth of bacteria that had translocated through the keratinocytes layer to the lower chamber. Bacterial translocation was quantified by culturing medium from the lower chamber at 2-hour intervals.
Bacterial translocation studies were performed to assess the impact of HABP01 on bacterial paracellular translocation through polarized keratinocyte cultures.
Incubation of GAS in the presence of HABP33, HABP35 and HABP42, also delayed GAS translocation. At two hours after the addition of GAS to the keratinocytes, approximately 530 CFU of GAS were detected in the lower level in cultures treated with PBS or SCRM peptide.

GAS [4] = experiment: Mouse soft tissue invasive infection model; set-up: species or system CBA/J mice; conditions: in vivo
Procedure: Mouse soft tissue invasive infection model: Female 4-6-week-old CBA/J mice (Jackson Laboratory, […].) were inoculated with GAS. Briefly, mice were anesthetized and the hair was shaved off the right flank. Approximately 1.5×10^5 cfu of GAS from an early log-phase broth culture were suspended in 50 μl of sterile PBS or HABP and inoculated just under the surface of the skin with a 27-guage needle. The animals were observed twice daily for 3-5 days. Serial tail vein bleeds were performed daily and 50 μl of blood was inoculated on BAP for enumeration of viable bacterial CFU and incubated at 37° C. for 24 hours. Animals surviving the experiment or appearing moribund at any time were euthanized and the spleen removed using aseptic technique. The spleen was homogenized in 1 ml of THB and 100 μl of homogenate plated on BAP. In some experiments animals were euthanized at various time points during infection and tissue sections from the inoculation site were prepared for histopathological examination.
HABP-treated mice repeatedly indicated a 24-hour to 48-hour delay in dissemination of bacteria from the inoculation site compared to controls. […] The delayed dissemination correlated with a reduced mortality 24 hours after infection, but once dissemination occurred, HABP-treated mice died rapidly. Histopathologic analysis of the infection site indicated typical lateral GAS dissemination. […]

HKSVSRHTSMRHSTM [SCRM, reference compound]
binding to purified HA (in words) ([1]; fluorometry): did not bind
Relative binding ([1]; substrate in well: HA (1 mg/ml), 10 μg/ml FITC-conjugated peptide): 1520 ± 20 relative fluorescent units
log increase in CFU's (GAS [2]): ~1.5 log
GAS detected in the lower level (GAS [3]): approximately 530 CFU
PMNs at the infection site (confocal microscopy of tissue sections) (GAS [4]): numerous polymorphonuclear leukocytes
